GI50 and TGI data for 15 compounds are collected here from PubChem BioAssay (NCI).

Values joined by “and” are separate entries in the source; they are usually repeats but may differ in a detail not shown here. Identical values can stand only once.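 A five-concentration, 48-hour dose response in 96-well plates underlies each endpoint, interpolated linearly between surrounding concentrations. Abbreviation: GI50, concentration required for 50% inhibition of growth. TGI: concentration producing complete growth inhibition.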

Among the test systems are KM20L2 colon; OVCAR-8 ovarian; HOP-62 NSCLC; HCT-116 colon; TK-10 renal; LOX IMVI melanoma; U251 CNS; EKVX NSCLC; NCI-H226 lung; MDA-N.
Common to all, as to test: growth of human tumour cells (NCI), 48 h

With `CCC[CH2][Sn](=[O])[CH2]CCC`, the GI50 in the assay on KM20L2 colon, with OVCAR-8 ovarian, with HOP-62 NSCLC, in the assay on HCT-116 colon, in the assay on TK-10 renal and with LOX IMVI melanoma was > 50 µM each time. The GI50 in the assay with U251 CNS, with EKVX NSCLC and in the assay on NCI-H226 lung was > 50 µM each time. In addition, the TGI in the assay with KM20L2 colon, in the assay with OVCAR-8 ovarian, in the assay with HOP-62 NSCLC, with HCT-116 colon, in the assay on TK-10 renal and in the assay with LOX IMVI melanoma was > 50 µM each time. The TGI in the assay with U251 CNS, in the assay on EKVX NSCLC and in the assay on NCI-H226 lung was > 50 µM throughout.
Regarding `CN(C)c1ccc(/C=c2\sc3nnc(-c4ccco4)n3c2=O)cc1`, the TGI with KM20L2 colon, with OVCAR-8 ovarian, in the assay on HOP-62 NSCLC, in the assay on HCT-116 colon, with TK-10 renal and in the assay with LOX IMVI melanoma was > 100 µM each time. The TGI in the assay on U251 CNS, with EKVX NSCLC and in the assay on NCI-H226 lung was > 100 µM each time.
In the case of `O=C(O)Cc1cccc2c(=O)cc(-c3ccccc3)oc12`, the GI50 was 176 µM with MDA-N; 84.5 µM in the assay on OVCAR-8 ovarian; 294 µM in the assay with HCT-116 colon; 990 µM in the assay with TK-10 renal; 280 µM in the assay on LOX IMVI melanoma; 360 µM with U251 CNS. For the same compound, the GI50 was 611 µM in the assay on EKVX NSCLC and 363 µM in the assay on NCI-H226 lung. Also, the TGI in the assay on MDA-N was 250 µM and > 893 µM; with KM20L2 colon, > 250 µM; in the assay on OVCAR-8 ovarian it was > 1000 µM; in the assay on HOP-62 NSCLC it was 250 µM and > 1000 µM; in the assay on HCT-116 colon, 212 µM and > 868 µM; in the assay with TK-10 renal, > 1000 µM. Also, the TGI was 250 µM and > 909 µM in the assay with LOX IMVI melanoma; > 1000 µM in the assay on U251 CNS; 250 µM and > 1000 µM with EKVX NSCLC; 250 µM and > 1000 µM with NCI-H226 lung.
As for `O=C1C2CCN(CC2)C1CN1CCOCC1` (stereo not given), the TGI with MDA-N was 20.1 µM; in the assay on KM20L2 colon it was 37 µM; with OVCAR-8 ovarian it was 13.6 µM; in the assay with HOP-62 NSCLC, 34 µM; in the assay on HCT-116 colon, 3.73 µM; in the assay with TK-10 renal it was 13.2 µM. Further, the TGI was 12.1 µM with LOX IMVI melanoma, 26.2 µM in the assay with U251 CNS, 33.8 µM in the assay on EKVX NSCLC and 26.5 µM in the assay on NCI-H226 lung.
As to `CN(C)CCNc1ccc2ncn3c4ccc(O)cc4c(=O)c1c23`, the TGI with MDA-N was 15.1 µM; in the assay with KM20L2 colon, 12.9 µM; in the assay with OVCAR-8 ovarian, 7.76 µM; in the assay on HOP-62 NSCLC, 5.35 µM; with HCT-116 colon it was 11.5 µM; with TK-10 renal, 21.8 µM. Moreover, the TGI came out at 3.36 µM in the assay with LOX IMVI melanoma, 3.97 µM with U251 CNS, 17.5 µM with EKVX NSCLC and 3.47 µM in the assay with NCI-H226 lung.
Regarding `CC(Oc1ccc2c(-c3ccc(Cl)cc3)cc(=O)oc2c1)C(=O)O` (stereo not given), the TGI in the assay with KM20L2 colon, in the assay on OVCAR-8 ovarian, with HOP-62 NSCLC, with HCT-116 colon, in the assay on TK-10 renal and in the assay with LOX IMVI melanoma was > 100 µM throughout. Further, the TGI in the assay on U251 CNS, with EKVX NSCLC and in the assay with NCI-H226 lung was > 100 µM in each case.
Regarding `NC(=S)N1N=C2CCCCCC[C@@H]2[C@H]1c1ccccc1`, the TGI with KM20L2 colon, with OVCAR-8 ovarian, in the assay on HOP-62 NSCLC, with HCT-116 colon, in the assay on TK-10 renal and in the assay on LOX IMVI melanoma was > 100 µM throughout. Further, the TGI in the assay on U251 CNS, in the assay on EKVX NSCLC and in the assay with NCI-H226 lung was > 100 µM throughout.
In the case of `COC(=O)CCC(=O)Nc1ccc(Cl)cc1C`, the TGI with KM20L2 colon, with OVCAR-8 ovarian, in the assay with HOP-62 NSCLC, in the assay with HCT-116 colon, in the assay with TK-10 renal and in the assay with LOX IMVI melanoma was > 100 µM in each case. Moreover, the TGI with U251 CNS, in the assay on EKVX NSCLC and with NCI-H226 lung was > 100 µM throughout.
In the case of `CC(=O)OC12C(C)=C(C)C(=O)N1c1ccccc1N2C(C)=O` (stereo not given), the TGI in the assay with KM20L2 colon, in the assay on OVCAR-8 ovarian, in the assay with HOP-62 NSCLC, in the assay with HCT-116 colon, in the assay on TK-10 renal and in the assay with LOX IMVI melanoma was > 100 µM each time. Besides, the TGI with U251 CNS, in the assay on EKVX NSCLC and in the assay on NCI-H226 lung was > 100 µM throughout.
On to `CSC(=NC(=O)c1ccccc1Cl)SCCSC(=NC(=O)c1ccccc1Cl)SC`, for which the TGI in the assay with KM20L2 colon, in the assay with OVCAR-8 ovarian, in the assay on HOP-62 NSCLC, in the assay with HCT-116 colon, in the assay with TK-10 renal and in the assay with LOX IMVI melanoma was > 100 µM in each case. For the same compound, the TGI with U251 CNS, with EKVX NSCLC and in the assay on NCI-H226 lung was > 100 µM in each case.
`Cc1cccc(-c2nnc3s/c(=C\c4ccc(N(C)C)cc4)c(=O)n23)c1`: the TGI with KM20L2 colon, with OVCAR-8 ovarian, in the assay on HOP-62 NSCLC, in the assay on HCT-116 colon, in the assay on TK-10 renal and in the assay with LOX IMVI melanoma was > 100 µM in each case. For the same compound, the TGI with U251 CNS, in the assay with EKVX NSCLC and in the assay with NCI-H226 lung was > 100 µM each time.
In the case of `O=C(C[n+]1ccccc1)N/N=C(/CCC(=O)N(Cc1ccccc1)Cc1ccccc1)CC(=O)c1ccccc1`, the TGI in the assay with KM20L2 colon, in the assay on OVCAR-8 ovarian, with HOP-62 NSCLC, in the assay with HCT-116 colon, in the assay with TK-10 renal and in the assay on LOX IMVI melanoma was > 100 µM in each case. For the same compound, the TGI in the assay with U251 CNS, in the assay with EKVX NSCLC and with NCI-H226 lung was > 100 µM each time.
`O=C1c2ccccc2-c2c3c(cc4ccnc1c24)OCO3`: the TGI with KM20L2 colon is > 100 µM and 60.9 µM; in the assay on OVCAR-8 ovarian it was 27.7 µM and 25.5 µM; with HOP-62 NSCLC, 21.1 µM; with HCT-116 colon, 33.3 µM and 33.6 µM; in the assay on LOX IMVI melanoma, 58.4 µM and 15 µM; with U251 CNS, 35.1 µM and > 100 µM. Moreover, the TGI in the assay with EKVX NSCLC was 11.7 µM and 35.7 µM; in the assay with NCI-H226 lung, 26.2 µM and 24.4 µM. Also, the GI50 in the assay with TK-10 renal was 3.02 µM and 10.2 µM.
In the case of `COc1ccc(C(=O)C2CCC(C(=O)O)C2)cc1` (stereo not given), the TGI with KM20L2 colon, in the assay with OVCAR-8 ovarian, in the assay on HOP-62 NSCLC, in the assay on HCT-116 colon, in the assay with TK-10 renal and in the assay with LOX IMVI melanoma was > 100 µM throughout. In addition, the TGI in the assay with U251 CNS, in the assay with EKVX NSCLC and in the assay on NCI-H226 lung was > 100 µM each time.
Turning to `CCOC(=O)C12CCCC1(O)N(NC(=O)OC)C(C)=C2C(=O)OC` (stereo not given), the TGI in the assay on KM20L2 colon, in the assay on OVCAR-8 ovarian, with HOP-62 NSCLC, with HCT-116 colon, in the assay with TK-10 renal and in the assay on LOX IMVI melanoma was > 100 µM each time. In addition, the TGI with U251 CNS, with EKVX NSCLC and in the assay with NCI-H226 lung was > 100 µM in each case.
